Results taken from patent US4402964A, “N-Aryl-N'-(3-methyl or ethyl-4-oxothiazolidinylidene)ureas useful for the treatment of epilepsy” (McNeilab, Inc., priority 1981, dated 1983).

Test system: tonic extensor seizure caused by applying an electric shock to mice via corneal electrodes
Assay: Maximal Electroshock (MES) test in mice (anticonvulsant activity)
Assay type: in vivo
Set-up: key to Mice MES test results (IA): IA: inactive
Conditions: for ED50: Mus musculus, po, read-out: ED50, Mice MES test results dose (50% of the animals show a block of tonic extensor convulsions)
Excerpt: Activity in the MES test, indicating anticonvulsant activity, is characterized by a block of the tonic extensor seizure caused by applying an electric shock to mice via corneal electrodes as described in Swinyard et al., J. Pharmacol. Exp. Ther., 106, 319-330 (1952) and recorded as % block. A more recent description of current practice in anticonvulsant drug screening has also been reported by Swinyard et al., Epilepsia, 19, 409-428 (1978).
In said table, the ED50 result means that 50% of the animals show a block of tonic extensor convulsions in the MES test.

[1] = 10 mg/kg p.o., mice, only dose available

Row | SMILES | ED50 (mice, p.o.) | further results
1 | CCc1cccc(CC)c1NC(=O)N=C1SCC(=O)N1C [V] | 17.5 mg/kg | –
2 | CN1C(=O)CSC1=NC(=O)Nc1c(Br)cc(F)cc1Br [VI] | – | Mice MES test results (activity in words) (200 mg/kg p.o.): Active; % block (MES test) (200 mg/kg p.o., mice): 60%
3 | Cc1cccc(C)c1NC(=O)N=C1SCC(=O)N1C [Example I, N-(2,6-dimethylphenyl)-N'-(3-methyl-4-oxo-2-thiazolidinylidene)urea] | 9.96 mg/kg | –
4 | Cc1cccc(C)c1NC(=O)N=C1NC(=O)CS1 [McN-4241, reference compound] | 242 mg/kg | ED50 range, Mice MES test results (mice, p.o., range printed in parentheses with the ED50): 196.5 to 296.9 mg/kg
5 | O=C1CSC(=NC(=O)Nc2c(Cl)cccc2Cl)N1 [McN-4242, reference compound] | – | Mice MES test results (IA) (200 mg/kg p.o., mice): IA
6 | COc1cccc(OC)c1NC(=O)N=C1SCC(=O)N1C [IX] | 35.7 mg/kg | –
7 | CN1C(=O)CSC1=NC(=O)Nc1c(F)cccc1F [Example X] | 52.2 mg/kg | –
8 | CN1C(=O)CSC1=NC(=O)Nc1c(Cl)cccc1Cl [Example II, N-(2,6-dichlorophenyl)-N'-(3-methyl-4-oxo-2-thiazolidinylidene)urea] | 28.3 mg/kg | –
9 | CCc1cccc(C)c1NC(=O)N=C1SCC(=O)N1C [III] | – | % block (MES test) [1]: 10%; Mice MES test results (activity in words) [1]: Active
10 | Cc1cccc(Cl)c1NC(=O)N=C1SCC(=O)N1C [IV, N-(2-chloro-6-methylphenyl)-N'-(3-methyl-4-oxo-2-thiazolidinylidene)urea] | 28.5 mg/kg | –
11 | Cc1cccc(NC(=O)N=C2SCC(=O)N2C)c1C [VIII] | 128 mg/kg | –
12 | CN1C(=O)CSC1=NC(=O)Nc1c(Br)cccc1Br [VII] | 83.9 mg/kg | –
13 | O=C1CSC(=NC(=O)Nc2ccccc2)N1 [Example X-888, reference compound] | – | Mice MES test results (activity in words) (200 mg/kg p.o.): not active; Mice MES test results (IA) (200 mg/kg p.o., mice): IA
